# Measurements as given in ChEMBL document CHEMBL4152189, “Incorporation of nitric oxide donor into 1,3-dioxyxanthones leads to synergistic anticancer activity” (Eur J Med Chem, 2018).
# Tests used:
# Assay type in all cases: functional, cell-based
# [1] = tested on: HepG2; experiment: Growth inhibition of human HepG2 cells after 24 hrs by MTT assay; details: HepG2, 24 h
# [2] = tested on: MDA-MB-231; experiment: Growth inhibition of human MDA-MB-231 cells after 24 hrs by MTT assay; details: MDA-MB-231, 24 h
# [3] = tested on: MCF7; experiment: Growth inhibition of human MCF7 cells after 24 hrs by MTT assay; details: MCF7, 24 h
Compound,IC50 [1] [µM],IC50 [2] [µM],IC50 [3] [µM]
COc1cc2oc3cc(OCCCCCO[N+](=O)[O-])cc(O)c3c(=O)c2cc1OC,6.35,45.6,> 200
COc1ccc2oc3cc(OCCCCCO[N+](=O)[O-])cc(O)c3c(=O)c2c1,33.3,9.29,53.4
O=c1c2cc(Cl)ccc2oc2cc(OCCCCCCO[N+](=O)[O-])cc(O)c12,6.03,9.74,13.3
Cc1ccc2c(=O)c3c(O)cc(OCCCCCCO[N+](=O)[O-])cc3oc2c1,1.28,10.3,35.1
O=c1c2ccccc2oc2cc(OCCCO[N+](=O)[O-])cc(O)c12,12.3,83.9,> 200
O=c1c2cc(Cl)ccc2oc2cc(OCCO[N+](=O)[O-])cc(O)c12,43.1,33.3,74.3
COc1cc2oc3cc(O)cc(O)c3c(=O)c2cc1OC,123,> 200,> 200
O=c1c2cc(O)ccc2oc2cc(OCCCO[N+](=O)[O-])cc(O)c12,33,134,> 200
O=c1c2ccc(O)cc2oc2cc(OCCCCCO[N+](=O)[O-])cc(O)c12,62.3,41.4,112
O=c1c2ccccc2oc2cc(OCCO[N+](=O)[O-])cc(O)c12,20.5,90.9,> 200
O=c1c2ccc(O)cc2oc2cc(OCCO[N+](=O)[O-])cc(O)c12,160,108,> 200
O=c1c2ccccc2oc2cc(OCCCCCCCO[N+](=O)[O-])cc(O)c12,5.24,43.5,153
COc1cc2oc3cc(OCCCCCCO[N+](=O)[O-])cc(O)c3c(=O)c2cc1OC,1.83,19.8,98.2
COc1cccc2oc3cc(OCCO[N+](=O)[O-])cc(O)c3c(=O)c12,21.5,11.2,104
O=c1c2cc(O)ccc2oc2cc(O)cc(O)c12,> 200,> 200,> 200
Cc1ccc2c(=O)c3c(O)cc(OCCCCCCCO[N+](=O)[O-])cc3oc2c1,8.76,55.9,42.7
O=c1c2cc(Cl)ccc2oc2cc(OCCCCCCCO[N+](=O)[O-])cc(O)c12,8.13,10.2,30.8
O=c1c2cc(Br)ccc2oc2cc(OCCCO[N+](=O)[O-])cc(O)c12,14,43.6,> 200
O=c1c2ccc(O)cc2oc2cc(OCCCCO[N+](=O)[O-])cc(O)c12,96,66.7,> 200
O=c1c2ccc(O)cc2oc2cc(OCCCCCCCO[N+](=O)[O-])cc(O)c12,76.2,51.5,> 200
COc1cc2oc3cc(OCCCCO[N+](=O)[O-])cc(O)c3c(=O)c2cc1OC,21.2,87.4,> 200
COc1cccc2oc3cc(OCCCCO[N+](=O)[O-])cc(O)c3c(=O)c12,10.2,6.25,63
O=c1c2cc(O)ccc2oc2cc(OCCCCO[N+](=O)[O-])cc(O)c12,22.3,92.6,143
O=c1c2cc(Br)ccc2oc2cc(OCCCCCO[N+](=O)[O-])cc(O)c12,2.65,11.1,73.2
O=c1c2cc(Cl)ccc2oc2cc(OCCCCCO[N+](=O)[O-])cc(O)c12,5.32,7.79,25.1
O=c1c2ccccc2oc2cc(OCCCCCO[N+](=O)[O-])cc(O)c12,4.08,40.7,> 200

Compound,IC50 [1] [µM],IC50 [2] [µM],IC50 [3] [µM]
O=c1c2cc(Br)ccc2oc2cc(OCCCCCCCO[N+](=O)[O-])cc(O)c12,7.28,9.27,35.9
O=c1c2cc(O)ccc2oc2cc(OCCCCCCO[N+](=O)[O-])cc(O)c12,11.4,18.5,53.7
O=c1c2cc(Cl)ccc2oc2cc(OCCCO[N+](=O)[O-])cc(O)c12,17.4,27.8,53.4
O=c1c2ccc(O)cc2oc2cc(OCCCO[N+](=O)[O-])cc(O)c12,116,82.7,> 200
O=c1c2cc(Br)ccc2oc2cc(OCCCCO[N+](=O)[O-])cc(O)c12,10.1,11.2,42.9
O=c1c2cc(O)ccc2oc2cc(OCCCCCCCO[N+](=O)[O-])cc(O)c12,15.2,74.3,112
COc1cccc2oc3cc(OCCCCCO)cc(O)c3c(=O)c12,23.7,41.1,> 200
Cc1ccc2c(=O)c3c(O)cc(OCCCCO[N+](=O)[O-])cc3oc2c1,10.6,62.9,47.7
COc1cc2oc3cc(OCCCCCCCO[N+](=O)[O-])cc(O)c3c(=O)c2cc1OC,13.2,67.6,163
COc1cccc2oc3cc(OCCCCCCO[N+](=O)[O-])cc(O)c3c(=O)c12,0.61,0.45,31
O=c1c2ccccc2oc2cc(OCCCCO[N+](=O)[O-])cc(O)c12,6.55,56.6,> 200
Cc1ccc2c(=O)c3c(O)cc(OCCCO[N+](=O)[O-])cc3oc2c1,12.8,78.4,62.8
COc1cccc2oc3cc(O)cc(O)c3c(=O)c12,32.5,66,> 200
Cc1ccc2c(=O)c3c(O)cc(OCCCCCO[N+](=O)[O-])cc3oc2c1,2.95,30.7,39.5
COc1cc2oc3cc(OCCO[N+](=O)[O-])cc(O)c3c(=O)c2cc1OC,91.7,130,> 200
COc1cccc2oc3cc(OCCCO[N+](=O)[O-])cc(O)c3c(=O)c12,13.6,9.68,102
O=c1c2ccccc2oc2cc(OCCCCCCO[N+](=O)[O-])cc(O)c12,3.17,23.5,93.1
O=[N+]([O-])OCCCO [ABRUCOMSTAT],111,> 200,> 200
COc1ccc2oc3cc(OCCCO[N+](=O)[O-])cc(O)c3c(=O)c2c1,63.5,35.6,98.2
O=c1c2cc(O)ccc2oc2cc(OCCCCCO[N+](=O)[O-])cc(O)c12,9.91,44.6,91.2
COc1cc2oc3cc(OCCCO[N+](=O)[O-])cc(O)c3c(=O)c2cc1OC,53.6,112,> 200
O=c1c2cc(Br)ccc2oc2cc(OCCCCCCO[N+](=O)[O-])cc(O)c12,1.21,15,43.5
COc1ccc2oc3cc(OCCCCCCCO[N+](=O)[O-])cc(O)c3c(=O)c2c1,42.1,16.2,71.2
COc1ccc2oc3cc(OCCCCO[N+](=O)[O-])cc(O)c3c(=O)c2c1,52.1,22.3,83.2
O=c1c2ccc(O)cc2oc2cc(O)cc(O)c12,> 200,> 200,> 200
